Assay [1] addresses T1, Serine/threonine-protein kinase TAO3 (Homo sapiens) (UniProt Q9H2K8).
T1 sequence (whole entry): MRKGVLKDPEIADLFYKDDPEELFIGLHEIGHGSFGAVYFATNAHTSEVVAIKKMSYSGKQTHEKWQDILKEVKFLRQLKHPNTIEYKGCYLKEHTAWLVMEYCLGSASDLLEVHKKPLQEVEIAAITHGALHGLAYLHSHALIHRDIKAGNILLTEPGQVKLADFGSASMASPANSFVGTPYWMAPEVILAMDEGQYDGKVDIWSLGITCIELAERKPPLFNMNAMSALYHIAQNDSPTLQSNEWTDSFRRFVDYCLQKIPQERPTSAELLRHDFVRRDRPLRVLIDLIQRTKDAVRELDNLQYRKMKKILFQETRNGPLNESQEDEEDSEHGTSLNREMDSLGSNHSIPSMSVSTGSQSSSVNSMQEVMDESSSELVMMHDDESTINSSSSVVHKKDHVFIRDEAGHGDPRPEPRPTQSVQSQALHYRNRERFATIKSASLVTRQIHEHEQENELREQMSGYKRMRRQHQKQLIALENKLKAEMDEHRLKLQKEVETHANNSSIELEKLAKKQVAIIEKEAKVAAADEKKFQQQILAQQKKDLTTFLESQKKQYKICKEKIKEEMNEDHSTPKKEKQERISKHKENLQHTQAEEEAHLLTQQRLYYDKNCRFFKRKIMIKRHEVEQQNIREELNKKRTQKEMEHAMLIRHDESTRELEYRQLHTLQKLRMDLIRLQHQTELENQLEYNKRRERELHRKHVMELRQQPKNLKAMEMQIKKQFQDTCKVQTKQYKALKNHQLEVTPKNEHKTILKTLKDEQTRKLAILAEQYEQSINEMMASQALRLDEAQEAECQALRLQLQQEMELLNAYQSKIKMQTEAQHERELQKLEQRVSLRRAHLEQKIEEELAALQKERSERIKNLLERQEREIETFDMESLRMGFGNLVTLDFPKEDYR

The target in assay [2] is Dual specificity tyrosine-phosphorylation-regulated kinase 1A (Homo sapiens) (UniProt Q13627).
In assay [3] the target is T2, Mitogen-activated protein kinase kinase kinase 2 (Homo sapiens) (UniProt Q9Y2U5).
T2 sequence (whole entry): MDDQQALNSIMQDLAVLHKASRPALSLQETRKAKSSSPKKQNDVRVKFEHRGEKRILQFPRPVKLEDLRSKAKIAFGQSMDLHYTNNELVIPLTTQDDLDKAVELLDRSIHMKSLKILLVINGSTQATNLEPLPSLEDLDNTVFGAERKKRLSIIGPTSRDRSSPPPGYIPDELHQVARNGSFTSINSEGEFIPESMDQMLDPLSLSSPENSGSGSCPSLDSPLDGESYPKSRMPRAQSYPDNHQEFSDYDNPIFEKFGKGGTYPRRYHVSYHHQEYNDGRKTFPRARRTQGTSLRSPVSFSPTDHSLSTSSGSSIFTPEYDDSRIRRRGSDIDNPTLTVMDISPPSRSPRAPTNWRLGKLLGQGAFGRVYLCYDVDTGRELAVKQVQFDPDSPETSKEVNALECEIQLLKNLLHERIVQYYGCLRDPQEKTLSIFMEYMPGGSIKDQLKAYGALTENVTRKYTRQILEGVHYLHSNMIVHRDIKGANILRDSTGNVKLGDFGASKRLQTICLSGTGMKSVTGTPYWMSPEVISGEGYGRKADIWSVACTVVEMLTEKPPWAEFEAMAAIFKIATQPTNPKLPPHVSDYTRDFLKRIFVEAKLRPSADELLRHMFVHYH

Assay [4] addresses Ribosomal protein S6 kinase alpha-3 (Homo sapiens) (UniProt P51812).
The target in assay [5] is Cyclin-dependent kinase 16 (Homo sapiens) (UniProt Q00536).
Assay [6] has as its target D(3) dopamine receptor (Homo sapiens) (UniProt P35462). As to conditions: Compound concentration 10.0 uM.
Assay [7] deals with Serine/threonine-protein kinase STK11 (Homo sapiens) (UniProt Q15831).
Assay [8] addresses T3, 5-hydroxytryptamine receptor 2C (Homo sapiens) (UniProt P28335).
T3 sequence (whole entry): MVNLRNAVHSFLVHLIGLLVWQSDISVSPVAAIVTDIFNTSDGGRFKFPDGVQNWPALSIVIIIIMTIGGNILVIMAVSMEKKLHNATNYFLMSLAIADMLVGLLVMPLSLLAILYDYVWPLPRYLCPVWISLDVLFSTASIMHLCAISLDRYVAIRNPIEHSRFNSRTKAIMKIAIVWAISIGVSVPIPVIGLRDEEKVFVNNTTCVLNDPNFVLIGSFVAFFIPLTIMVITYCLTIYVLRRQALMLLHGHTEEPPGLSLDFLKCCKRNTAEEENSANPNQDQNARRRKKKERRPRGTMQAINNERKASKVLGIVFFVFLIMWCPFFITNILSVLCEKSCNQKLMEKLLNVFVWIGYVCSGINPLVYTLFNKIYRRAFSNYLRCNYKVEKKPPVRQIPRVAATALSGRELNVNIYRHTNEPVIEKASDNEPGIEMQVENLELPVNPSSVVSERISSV
As to conditions: Compound concentration 10.0 uM.

For assay [9], the target named is Death-associated protein kinase 2 (Homo sapiens) (UniProt Q9UIK4).
In assay [10] the target is Receptor tyrosine-protein kinase erbB-4 (Homo sapiens) (UniProt Q15303).
Assay [11] deals with Activin receptor type-2B (Homo sapiens) (UniProt Q13705).
Assay [12] concerns the target Macrophage-stimulating protein receptor (Homo sapiens) (UniProt Q04912).
Setting [13] is: Compound concentration 100.0 nM.
Setting [14] is: Compound concentration 1000.0 nM.

Drawing on ChEMBL document CHEMBL4507291 (2021), this text covers residual activity and inhibition for 2 molecules.

Each structure is given as a SMILES string.

Chain of Ribosomal protein S6 kinase alpha-3 (Homo sapiens) (P51812 whole entry): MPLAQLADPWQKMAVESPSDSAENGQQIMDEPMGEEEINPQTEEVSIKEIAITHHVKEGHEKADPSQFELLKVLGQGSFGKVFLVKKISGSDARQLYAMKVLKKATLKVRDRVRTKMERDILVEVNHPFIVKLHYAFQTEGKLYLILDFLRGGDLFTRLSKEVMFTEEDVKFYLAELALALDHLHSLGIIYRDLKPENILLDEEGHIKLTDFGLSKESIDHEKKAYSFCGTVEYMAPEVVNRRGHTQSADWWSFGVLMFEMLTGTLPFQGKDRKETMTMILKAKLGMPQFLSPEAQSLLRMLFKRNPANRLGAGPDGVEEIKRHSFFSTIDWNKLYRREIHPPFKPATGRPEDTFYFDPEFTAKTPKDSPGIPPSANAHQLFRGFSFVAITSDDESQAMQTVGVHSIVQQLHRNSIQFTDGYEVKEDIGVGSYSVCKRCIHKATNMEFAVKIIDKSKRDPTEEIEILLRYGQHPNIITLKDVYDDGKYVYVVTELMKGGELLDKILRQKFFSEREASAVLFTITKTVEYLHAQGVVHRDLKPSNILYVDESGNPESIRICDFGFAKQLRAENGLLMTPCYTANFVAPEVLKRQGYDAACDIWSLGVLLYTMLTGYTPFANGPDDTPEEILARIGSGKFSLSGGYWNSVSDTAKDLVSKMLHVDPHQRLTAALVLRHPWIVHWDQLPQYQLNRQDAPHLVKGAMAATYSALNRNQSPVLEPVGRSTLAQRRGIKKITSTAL
Chain of Death-associated protein kinase 2 (Homo sapiens) (Q9UIK4 whole entry, looked up): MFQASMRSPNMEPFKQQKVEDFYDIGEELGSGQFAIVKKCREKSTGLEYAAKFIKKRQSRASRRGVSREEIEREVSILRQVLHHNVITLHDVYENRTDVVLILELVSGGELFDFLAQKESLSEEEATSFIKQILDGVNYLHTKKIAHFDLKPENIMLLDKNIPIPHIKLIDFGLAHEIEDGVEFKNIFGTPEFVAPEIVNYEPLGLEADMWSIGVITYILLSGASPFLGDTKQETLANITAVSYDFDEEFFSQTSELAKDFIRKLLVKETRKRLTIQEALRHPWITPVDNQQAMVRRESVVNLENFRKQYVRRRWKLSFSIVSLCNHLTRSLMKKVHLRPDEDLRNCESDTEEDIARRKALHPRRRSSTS
Chain of Cyclin-dependent kinase 16 (Homo sapiens) (Q00536 whole entry): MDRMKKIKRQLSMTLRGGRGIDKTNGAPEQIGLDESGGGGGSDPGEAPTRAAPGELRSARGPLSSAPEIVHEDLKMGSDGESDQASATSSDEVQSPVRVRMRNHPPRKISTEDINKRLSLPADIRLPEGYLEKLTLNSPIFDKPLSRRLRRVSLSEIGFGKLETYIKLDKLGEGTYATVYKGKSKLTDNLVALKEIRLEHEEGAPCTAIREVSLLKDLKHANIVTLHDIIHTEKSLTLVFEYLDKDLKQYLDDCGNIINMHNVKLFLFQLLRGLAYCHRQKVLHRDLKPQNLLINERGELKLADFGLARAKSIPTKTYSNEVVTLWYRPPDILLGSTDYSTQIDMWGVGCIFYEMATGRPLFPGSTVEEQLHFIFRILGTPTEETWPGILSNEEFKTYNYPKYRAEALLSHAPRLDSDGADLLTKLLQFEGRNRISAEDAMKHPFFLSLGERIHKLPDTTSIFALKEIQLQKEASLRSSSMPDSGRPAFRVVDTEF
Chain of Serine/threonine-protein kinase STK11 (Homo sapiens) (Q15831 whole entry): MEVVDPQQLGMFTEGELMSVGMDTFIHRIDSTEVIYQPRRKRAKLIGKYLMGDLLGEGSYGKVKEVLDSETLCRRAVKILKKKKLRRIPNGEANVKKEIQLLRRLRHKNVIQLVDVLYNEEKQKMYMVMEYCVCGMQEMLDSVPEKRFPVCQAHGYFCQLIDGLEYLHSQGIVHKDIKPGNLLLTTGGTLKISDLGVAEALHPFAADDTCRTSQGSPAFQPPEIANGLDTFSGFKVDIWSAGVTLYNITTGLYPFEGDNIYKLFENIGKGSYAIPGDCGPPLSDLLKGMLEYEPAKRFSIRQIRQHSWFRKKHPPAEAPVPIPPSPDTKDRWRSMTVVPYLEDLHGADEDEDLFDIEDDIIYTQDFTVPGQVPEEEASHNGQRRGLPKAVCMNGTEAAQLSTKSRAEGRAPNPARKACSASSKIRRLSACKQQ
Chain of Receptor tyrosine-protein kinase erbB-4 (Homo sapiens) (Q15303 whole entry): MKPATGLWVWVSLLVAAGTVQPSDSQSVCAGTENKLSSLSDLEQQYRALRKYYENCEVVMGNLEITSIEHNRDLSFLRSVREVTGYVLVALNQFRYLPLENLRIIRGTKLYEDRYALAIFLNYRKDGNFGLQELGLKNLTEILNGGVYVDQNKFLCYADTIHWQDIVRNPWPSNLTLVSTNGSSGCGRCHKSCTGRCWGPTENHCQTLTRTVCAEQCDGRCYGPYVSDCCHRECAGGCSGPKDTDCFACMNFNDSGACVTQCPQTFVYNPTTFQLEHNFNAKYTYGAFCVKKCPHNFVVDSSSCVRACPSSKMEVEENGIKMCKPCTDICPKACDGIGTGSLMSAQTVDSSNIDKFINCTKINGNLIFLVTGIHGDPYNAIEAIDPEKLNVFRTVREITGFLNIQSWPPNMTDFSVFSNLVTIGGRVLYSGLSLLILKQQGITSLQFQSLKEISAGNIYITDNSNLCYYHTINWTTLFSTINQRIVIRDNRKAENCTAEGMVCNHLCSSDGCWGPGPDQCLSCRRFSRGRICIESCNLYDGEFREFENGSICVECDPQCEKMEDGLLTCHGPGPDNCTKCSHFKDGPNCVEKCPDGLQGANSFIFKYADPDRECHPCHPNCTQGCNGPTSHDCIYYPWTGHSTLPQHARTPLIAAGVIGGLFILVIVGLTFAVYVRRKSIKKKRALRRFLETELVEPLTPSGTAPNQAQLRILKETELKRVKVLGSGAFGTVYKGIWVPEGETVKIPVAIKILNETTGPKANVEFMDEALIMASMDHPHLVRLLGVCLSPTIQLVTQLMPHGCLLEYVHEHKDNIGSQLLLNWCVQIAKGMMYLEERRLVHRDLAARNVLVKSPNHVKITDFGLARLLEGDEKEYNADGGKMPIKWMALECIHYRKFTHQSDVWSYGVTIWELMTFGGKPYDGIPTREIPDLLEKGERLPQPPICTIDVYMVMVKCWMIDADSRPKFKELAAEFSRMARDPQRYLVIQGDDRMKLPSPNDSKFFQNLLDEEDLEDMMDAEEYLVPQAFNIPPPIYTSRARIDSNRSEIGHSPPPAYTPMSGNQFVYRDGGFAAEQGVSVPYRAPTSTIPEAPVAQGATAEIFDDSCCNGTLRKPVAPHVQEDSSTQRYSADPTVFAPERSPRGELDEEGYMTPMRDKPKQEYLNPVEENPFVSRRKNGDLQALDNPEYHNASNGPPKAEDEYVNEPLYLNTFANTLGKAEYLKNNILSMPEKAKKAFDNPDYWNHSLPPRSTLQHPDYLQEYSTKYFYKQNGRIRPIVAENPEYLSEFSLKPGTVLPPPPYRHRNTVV
Chain of D(3) dopamine receptor (Homo sapiens) (P35462 whole entry): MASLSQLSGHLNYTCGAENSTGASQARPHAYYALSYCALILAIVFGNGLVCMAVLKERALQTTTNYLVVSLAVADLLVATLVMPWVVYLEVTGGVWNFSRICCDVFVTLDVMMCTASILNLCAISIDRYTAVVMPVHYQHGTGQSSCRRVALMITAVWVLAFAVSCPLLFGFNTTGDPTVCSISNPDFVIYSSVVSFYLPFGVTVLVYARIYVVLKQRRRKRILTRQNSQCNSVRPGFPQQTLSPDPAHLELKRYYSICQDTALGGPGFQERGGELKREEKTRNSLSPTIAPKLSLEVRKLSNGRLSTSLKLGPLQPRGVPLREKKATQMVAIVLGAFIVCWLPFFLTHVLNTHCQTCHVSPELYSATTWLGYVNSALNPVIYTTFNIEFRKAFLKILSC
Chain of Activin receptor type-2B (Homo sapiens) (Q13705 whole entry): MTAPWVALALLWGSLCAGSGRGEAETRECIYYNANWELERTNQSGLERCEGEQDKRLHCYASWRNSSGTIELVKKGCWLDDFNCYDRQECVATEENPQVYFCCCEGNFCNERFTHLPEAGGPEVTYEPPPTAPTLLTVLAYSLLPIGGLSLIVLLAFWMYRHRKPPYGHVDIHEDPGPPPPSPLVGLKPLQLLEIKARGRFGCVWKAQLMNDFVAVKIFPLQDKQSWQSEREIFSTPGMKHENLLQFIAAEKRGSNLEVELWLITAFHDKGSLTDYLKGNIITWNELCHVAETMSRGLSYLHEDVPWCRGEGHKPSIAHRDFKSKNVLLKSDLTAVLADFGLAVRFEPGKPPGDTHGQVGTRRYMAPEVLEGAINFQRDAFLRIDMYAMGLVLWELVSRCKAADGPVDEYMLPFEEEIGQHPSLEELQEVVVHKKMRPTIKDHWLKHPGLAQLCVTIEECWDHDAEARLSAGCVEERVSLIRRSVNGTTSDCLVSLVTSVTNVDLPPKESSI

With `C[C@@H]1CN(c2cc(-c3n[nH]c4ccc(OC5(C)CC5)cc34)ncn2)C[C@H](C)O1` [MLi-2], the residual activity in assay [1] (setting [13]) is 69%; in [2] (setting [13]), 95%; in [3] (setting [13]), 73%; in [4] (setting [13]), 73%; in [5] (setting [13]), 85%; in [7] (setting [13]), 83%. Also, the residual activity in assay [9] (setting [13]) is 85%; in [10] (setting [13]), 90%; in [11] (setting [13]) it was 99%; in assay [12] (setting [13]), 100%. For the same molecule, the inhibition – broadly, the relative decrease from the control value, in per cent – was -0.66% in [6] and 7.65% in [8].

As for `C[C@@H]1CN(c2cc(-c3nn(C)c4ccc(OC5(C)CC5)cc34)ncn2)C[C@H](C)O1` [MLi-2-NC], the residual activity was 35% in assay [1] (setting [14]); 81% in [2] (setting [14]); 83% in assay [3] (setting [14]); 82% in [4] (setting [14]); 87% in assay [5] (setting [14]); 94% in assay [7] (setting [14]). Also, the residual activity in assay [9] (setting [14]) is 89%; in [10] (setting [14]), 96%; in [11] (setting [14]), 98%; in assay [12] (setting [14]), 100%. For the same molecule, the results for the inhibition in assay [6] and in assay [8] were 2.71% and 18.7%, respectively.
